Test results from patent publication US6743640B2, “Fluorescent polymer-QTL approach to biosensing” (priority 2000, dated 2004).

Molecular target: avidin (Gallus gallus, UniProt P02701)
Assay: Competitive avidin-biotin fluorescence quench assay with 263 PRU cyanine polymer
Description: A preferred embodiment for using a cyanine polymer/QTL approach consists of a competitive assay based on selective quenching of a cyanine polymer solution. For example, a 263 polymer repeat unit (PRU) cyanine polymer can be conveniently used in a fluorescence quench competitive bioassay. A competitive assay involving the avidin-biotin receptor-ligand system was conducted as follows: 500 μl of 0.1 μM of this polymer was added to the filtrate (lower) chamber of each of 3 separate Microcon YM-30 centrifugal filter vials. In each of these devices the filtrate chamber is separated from the retentate (upper) chamber by a 30 kilodalton (KD) nominal molecular weight cutoff (NMWCO) cellulose membrane. This membrane is impermeable to the 66 KD protein avidin but allows the biotin-anthraquinone conjugate to pass. […] Since each avidin has four biotin binding sites, this sub-stoichiometric ratio ensures full binding of all QTL conjugate to avidin. The three retentate chambers were charged with a.) 0.5 μM D-Biotin, b. and c.) 0.8 μM AQS-biotin conjugate complexed with 1.0 μM avidin. The 3 tubes were then each sealed and incubated for 10 minutes, after which time 0.5 μM D-Biotin was added to vial c. […] The fluorescence emission of all three filtrates was then measured at 20.0° C.+/−0.1° C. on a SPEX FluoroMax-3. […]

avidin, sequence (P02701 25-152, species assumed): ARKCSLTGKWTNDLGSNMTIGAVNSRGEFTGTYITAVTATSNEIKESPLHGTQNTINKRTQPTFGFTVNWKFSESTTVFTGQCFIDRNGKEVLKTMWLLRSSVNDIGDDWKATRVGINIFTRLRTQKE

## O=C(O)CCCC[C@@H]1SC[C@@H]2NC(=O)N[C@@H]21 [biotin, D-Biotin]
0.8 μM AQS-biotin conjugate with 1.0 μM avidin
  quenching of cyanine polymer after adding competitor to QTL-avidin solution: quenching occurred
Sample alone in retentate chamber, 30 KD membrane, 263 PRU polymer 0.1 μM
  quenching of cyanine polymer in filtrate, sample alone: no quenching
